In publication PMC12501004:

assay: intramolecular Trp triplet quenching by Cys (photoinduced electron transfer, contact formation) in full-length measles virus NTAIL single C-W variants; nanosecond transient absorption (289 nm pump, 458 nm probe); tau_CW from 1/tau_CW = 1/tau_obs - 1/tau_0; conditions: aqueous buffer: 15 mM Tris, 150 mM NaCl, 1 mM TCEP, pH 7.6, N2O-saturated; 0.1 mM; 20.0 °C; scale: us

Substance | ring closure, rate
H-GSTTEDKICRAVGPRQAQVSFLHGDQSENELPRLGGKEDRRVKQSRGEARESWRETGPSRASDARAAHLPTGTPLDIDTASESSQDPQDSRRSADALLRLQAMAGISEEQGSDTDTPIVYNDRNLLD-OH | 6.63
H-GSTTEDKISRAVGPRQAQVSFLHGDQCENELPRLGGKEDRRVKQSRGEARESWRETGPSRASDARAAHLPTGTPLDIDTASESSQDPQDSRRSADALLRLQAMAGISEEQGSDTDTPIVYNDRNLLD-OH | 3.1
H-GSTTEDKISRAVGPRQAQVSFLHGDQSENELPRLGGKEDRRVKQSRGEARESWRETGPSRASDARAAHLPTGTPLDIDTASESCQDPQDSRRSADALLRLQAMAGISEEQGSDTDTPIVYNDRNLLD-OH | 3.21
H-GSTTEDKISRAVGPRQAQVSFLHGDQSENELPRLGGKEDRRVKQSRGEARESYRETGPSRASDARAAHLPTGTPLDIDTASESCQDPQDSRRSADALLRLQAMAGISEEQGSDTDTPIVWNDRNLLD-OH | 7.6
H-GSTTEDKISRAVGPRQAQVSFLHGDQSENELPRLGGKEDRRVKQSRGEARESYRETGPSRASDARAAHLPTGTPLDIDTASESSQDPQDCRRSADALLRLQAMAGISEEQGSDTDTPIVWNDRNLLD-OH | 2.76
